Measurements reported in ChEMBL document CHEMBL3739424, “Synthesis and biological evaluation of 2,3-diarylthiophene analogues of combretastatin A-4” (Medchemcomm, 2015).
pIC50: −log10 of the molar value. Active and inactive are the calls of the source. The rule behind the calls is not given here.

What was measured:
[1] = Anti-proliferative activity against human HT1080 cells after 72 hrs by MTT assay; type: functional, cell-based; details: HT-1080, 72 h
[2] = tested on: KB; assay: Anti-proliferative activity against human KB cells after 72 hrs by MTT assay; type: functional, cell-based
[3] = Anti-proliferative activity against human SGC7901 cells after 72 hrs by MTT assay; type: functional, cell-based; details: SGC-7901, 72 h
[4] = target: T1, Tubulin (Homo sapiens) (UniProt P68371+Q9H4B7+P0DPH7+P68366+Q13509+Q71U36+P04350+Q3ZCM7+P07437+P68363+Q9BQE3+Q6PEY2+Q13885+Q9BVA1+Q9BUF5); assay: Inhibition of tubulin (unknown origin) polymerization at 2 uM pre-incubated for 1 min measured for 1 min interval for 90 mins by fluorescence based assay; type: protein-complex assay
[5] = target: T1, Tubulin (Homo sapiens); assay: Inhibition of tubulin (unknown origin) polymerization at 1 uM pre-incubated for 1 min measured for 1 min interval for 90 mins by fluorescence based assay; type: protein-complex assay
[6] = target: T1, Tubulin (Homo sapiens); assay: Inhibition of tubulin (unknown origin) polymerization at 10 uM pre-incubated for 1 min measured for 1 min interval for 90 mins by fluorescence based assay; type: protein-complex assay
[7] = target: T1, Tubulin (Homo sapiens); assay: (§1) Inhibition of tubulin (unknown origin) polymerization pre-incubated for 1 min measured for 1 min interval for 90 mins by fluorescence based assay; type: protein-complex assay
[8] = target: Tubulin; assay: as §1; type: protein-complex assay, Homo sapiens
[9] = target: T1, Tubulin (Homo sapiens); assay: Inhibition of tubulin (unknown origin) polymerization at 4 uM pre-incubated for 1 min measured for 1 min interval for 90 mins by fluorescence based assay; type: protein-complex assay
[10] = tested on: SGC-7901; assay: Induction of microtubule network disruption in human SGC7901 cells at 0.4 uM after 24 hrs using DAPI immunofluorescence staining; type: cell-based
[11] = target: T1, Tubulin (Homo sapiens); assay: Inhibition of tubulin (unknown origin) polymerization at 5 uM pre-incubated for 1 min measured for 1 min interval for 90 mins by fluorescence based assay; type: protein-complex assay
[12] = target: T1, Tubulin (Homo sapiens); assay: Inhibition of tubulin (unknown origin) polymerization at 2.5 uM pre-incubated for 1 min measured for 1 min interval for 90 mins by fluorescence based assay; type: protein-complex assay
[13] = target: T1, Tubulin (Homo sapiens); assay: Inhibition of tubulin (unknown origin) polymerization at 15 uM pre-incubated for 1 min measured for 1 min interval for 90 mins by fluorescence based assay; type: protein-complex assay

Compound | pIC50 [1] | pIC50 [2] | pIC50 [3] | further results
COc1ccc(-c2ccsc2-c2cc(OC)c(OC)c(OC)c2)cc1[N+](=O)[O-] | 5.09 | 4.68 | 4.99 | 
COc1ccc(-c2sc(C(=O)O)cc2-c2cc(OC)c(OC)c(OC)c2)cc1 | 5.17 | 4.98 | 5.11 | 
COc1ccc(-c2sc(C(=O)O)cc2-c2cc(OC)c(OC)c(OC)c2)cc1OCc1ccccc1 | < 4.00 | < 4.00 | < 4.00 | 
CCOC(=O)c1cc(-c2cc(OC)c(OC)c(OC)c2)c(-c2ccc(OC)c(O)c2)s1 | 5.49 | 5.90 | 5.80 | 
COc1ccc(-c2sc(C(=O)O)cc2-c2cc(OC)c(OC)c(OC)c2)cc1O | 5.12 | 4.95 | 5.21 | 
CCOC(=O)c1cc(-c2ccc(OC)c(OCc3ccccc3)c2)c(-c2cc(OC)c(OC)c(OC)c2)s1 | < 4.00 | < 4.00 | < 4.00 | 
COc1ccc(-c2ccsc2-c2cc(OC)c(OC)c(OC)c2)cc1OCc1ccccc1 | < 4.00 | < 4.00 | < 4.00 | 
COc1ccc(-c2cc(C(=O)O)sc2-c2cc(OC)c(OC)c(OC)c2)cc1 | 5.24 | 5.06 | 5.37 | 
CCOC(=O)c1cc(-c2cc(OC)c(OC)c(OC)c2)c(-c2ccc3ccccc3c2)s1 | 5.94 | 5.23 | 5.36 | 
CCOC(=O)c1cc(-c2cc(OC)c(OC)c(OC)c2)c(-c2ccc(OC)c(OCc3ccccc3)c2)s1 | < 4.00 | < 4.00 | < 4.00 | 
COc1ccc(-c2ccsc2-c2cc(OC)c(OC)c(OC)c2)cc1O | 5.67 | 5.82 | 6.28 | inhibition [4]: 23.3%; inhibition [5]: 10%; inhibition [6]: 87.5%; inhibition [7]: Dose-dependent effect; pIC50 [8]: 5.30; inhibition [9]: 39.3%; Activity [10]: Active
COc1ccc(-c2sc(C(=O)O)cc2-c2cc(OC)c(OC)c(OC)c2)cc1[N+](=O)[O-] | 4.43 | 4.45 | 4.63 | 
COc1cc(-c2cc(C(=O)O)sc2-c2cccc(Br)c2)cc(OC)c1OC | < 4.00 | 4.49 | 4.03 | 
CCOC(=O)c1cc(-c2cc(OC)c(OC)c(OC)c2)c(-c2ccc(OC)c([N+](=O)[O-])c2)s1 | 4.90 | 4.80 | 4.74 | 
COc1ccc(-c2cc(C(=O)O)sc2-c2cc(OC)c(OC)c(OC)c2)cc1[N+](=O)[O-] | 4.42 | 4.36 | 4.67 | 
COc1cc(-c2ccsc2-c2ccc3ccccc3c2)cc(OC)c1OC | 5.27 | 5.44 | 5.23 | 

Compound | pIC50 [1] | pIC50 [2] | pIC50 [3] | further results
COc1cc(-c2ccsc2-c2cccc(Br)c2)cc(OC)c1OC | < 4.00 | < 4.00 | 4.34 | 
CCOC(=O)c1cc(-c2cc(OC)c(OC)c(OC)c2)c(-c2cccc(Br)c2)s1 | < 4.00 | < 4.00 | < 4.00 | 
COc1ccc(-c2ccsc2-c2cc(OC)c(OC)c(OC)c2)cc1 | 5.44 | 5.13 | 5.56 | 
COc1ccc(-c2sccc2-c2cc(OC)c(OC)c(OC)c2)cc1 | 5.34 | 5.05 | 5.26 | 
CCOC(=O)c1cc(-c2cc(OC)c(OC)c(OC)c2)c(-c2ccc(OC)cc2)s1 | 5.08 | 4.88 | 5.01 | 
COc1ccc(-c2sccc2-c2cc(OC)c(OC)c(OC)c2)cc1[N+](=O)[O-] | 5.68 | 4.97 | 5.48 | 
COc1ccc(/C=C\c2cc(OC)c(OC)c(OC)c2)cc1O [COMBRETASTATIN A4] | 7.96 | 7.80 | 7.62 | Activity [10]: Active
CCOC(=O)c1cc(-c2ccc(OC)cc2)c(-c2cc(OC)c(OC)c(OC)c2)s1 | 5.12 | 4.99 | 5.17 | 
COc1ccc(-c2cc(C(=O)O)sc2-c2cc(OC)c(OC)c(OC)c2)cc1O | 4.94 | 4.66 | 4.76 | 
CCOC(=O)c1cc(-c2ccc(OC)c(O)c2)c(-c2cc(OC)c(OC)c(OC)c2)s1 | 4.08 | < 4.00 | 4.70 | 
COc1cc(-c2cc(C(=O)O)sc2-c2ccc3ccccc3c2)cc(OC)c1OC | 4.87 | 5.25 | 6.42 | 
CCOC(=O)c1cc(-c2ccc(OC)c([N+](=O)[O-])c2)c(-c2cc(OC)c(OC)c(OC)c2)s1 | 4.58 | 4.62 | 4.71 | 
COc1ccc(-c2sccc2-c2cc(OC)c(OC)c(OC)c2)cc1O | 5.71 | 5.20 | 6.24 | inhibition [11]: 20%; inhibition [12]: 7.4%; inhibition [6]: 48%; inhibition [7]: Dose-dependent effect; pIC50 [8]: 5.01; inhibition [13]: 72.3%
COc1ccc(-c2sccc2-c2cc(OC)c(OC)c(OC)c2)cc1OCc1ccccc1 | < 4.00 | < 4.00 | < 4.00 | 
COc1ccc(-c2cc(C(=O)O)sc2-c2cc(OC)c(OC)c(OC)c2)cc1OCc1ccccc1 | < 4.00 | < 4.00 | < 4.00 | 
